# Reference: ChEMBL document CHEMBL4842360, “Discovery of a Bicyclic Peptidyl Pan-Ras Inhibitor” (J Med Chem, 2021)
# System: NCI-H358
# Test: Antiproliferative activity against human NCI-H358 cells incubated for 96 hrs by Celltiter-Glo assay
# Type: functional, cell-based
# Settings: Homo sapiens, NCI-H358, 96 h; read-out: EC50; call rule not given here
row,Structure (SMILES),EC50
1,C[C@@H]1NC(=O)[C@@H](Cc2ccccc2)NC(=O)[C@@H]2CCCCNC(=O)c3cc(cc(c3)C(=O)N[C@H](Cc3ccc4ccccc4c3)C(=O)N[C@@H](CO)C(=O)N[C@@H](CC(N)=O)C(=O)N[C@H](Cc3ccc4ccccc4c3)C(=O)N[C@@H](c3ccccc3)C(=O)N2)C(=O)NC[C@@H](C(=O)N[C@@H](CC(N)=O)C(=O)N[C@H](CCCNC(=N)N)C(=O)N[C@@H](Cc2cccc(Cl)c2)C(=O)N[C@H](C)C(N)=O)NC(=O)[C@H](CCCNC(=N)N)NC(=O)[C@@H](CCCNC(=N)N)NC1=O,9 µM
2,C[C@@H]1NC(=O)[C@@H](Cc2ccccc2)NC(=O)[C@@H]2CCCCNC(=O)c3cc(cc(c3)C(=O)N[C@H](Cc3ccc4ccccc4c3)C(=O)N[C@@H](CO)C(=O)N[C@@H](CC(N)=O)C(=O)N[C@H](Cc3ccc4ccccc4c3)C(=O)N[C@@H](c3ccccc3)C(=O)N2)C(=O)NC[C@@H](C(=O)N[C@@H](CCN)CC(=O)N[C@H](CCCNC(=N)N)C(N)=O)NC(=O)[C@H](CCCNC(=N)N)NC(=O)[C@@H](CCCNC(=N)N)NC1=O,16 µM
3,C[C@@H]1NC(=O)[C@@H](Cc2ccccc2)NC(=O)[C@@H]2CCCCNC(=O)c3cc(cc(c3)C(=O)N[C@H](Cc3ccc4ccccc4c3)C(=O)N[C@@H](CO)C(=O)N[C@@H](CC(N)=O)C(=O)N[C@H](Cc3ccc4ccccc4c3)C(=O)N[C@@H](c3ccccc3)C(=O)N2)C(=O)NC[C@@H](C(=O)N[C@@H](CCCN)C(=O)N[C@H](CCCNC(=N)N)C(=O)N[C@@H](CCc2ccccc2)C(=O)N[C@H](C)C(N)=O)NC(=O)[C@H](CCCNC(=N)N)NC(=O)[C@@H](CCCNC(=N)N)NC1=O,9.2 µM
4,C[C@@H](NC(=O)[C@H](Cc1ccccc1)NC(=O)[C@@H](CCCNC(=N)N)NC(=O)[C@H](CCCN)NC(=O)[C@@H]1CNC(=O)c2cc3cc(c2)C(=O)N[C@H](Cc2csc4ccccc24)C(=O)N[C@@H](CO)C(=O)N[C@@H](CC(N)=O)C(=O)N[C@H](Cc2ccc4ccccc4c2)C(=O)N[C@@H](c2ccccc2)C(=O)N[C@@H](CCCCNC3=O)C(=O)N[C@H](Cc2ccccc2)C(=O)N[C@H](CCC(N)=O)C(=O)N[C@H](CCCNC(=N)N)C(=O)N[C@@H](CCCNC(=N)N)C(=O)N1)C(N)=O,17 µM

# Other lines, results leading:
row,EC50,Structure (SMILES)
1,2.6 µM,C[C@@H](O)[C@H](NC(=O)[C@H](Cc1ccccc1)NC(=O)[C@@H](CCCNC(=N)N)NC(=O)[C@H](CCCN)NC(=O)[C@@H]1CNC(=O)c2cc3cc(c2)C(=O)N[C@H](Cc2ccc4ccccc4c2)C(=O)N[C@@H](CO)C(=O)N[C@@H](CC(N)=O)C(=O)N[C@H](Cc2ccc4ccccc4c2)C(=O)N[C@@H](c2ccccc2)C(=O)N[C@@H](CCCCNC3=O)C(=O)N[C@H](Cc2ccccc2)C(=O)N[C@H](CCC(N)=O)C(=O)N[C@H](CCCNC(=N)N)C(=O)N[C@@H](CCCNC(=N)N)C(=O)N1)C(N)=O
2,4.5 µM,C[C@@H]1NC(=O)[C@@H](Cc2ccccc2)NC(=O)[C@@H]2CCCCNC(=O)c3cc(cc(c3)C(=O)N[C@H](Cc3ccc4ccccc4c3)C(=O)N[C@@H](CO)C(=O)N[C@@H](CC(N)=O)C(=O)N[C@H](Cc3ccc4ccccc4c3)C(=O)N[C@@H](c3ccccc3)C(=O)N2)C(=O)NC[C@@H](C(=O)N[C@@H](CCCN)C(=O)N[C@H](CCCNC(=N)N)C(=O)N[C@H](C(=O)N[C@H](C)C(N)=O)c2ccccc2)NC(=O)[C@H](CCCNC(=N)N)NC(=O)[C@@H](CCCNC(=N)N)NC1=O
3,7.2 µM,CC[C@H]1NC(=O)[C@@H](Cc2ccccc2)NC(=O)[C@@H]2CCCCNC(=O)c3cc(cc(c3)C(=O)N[C@H](Cc3ccc4ccccc4c3)C(=O)N[C@@H](CO)C(=O)N[C@@H](CC(N)=O)C(=O)N[C@H](Cc3ccc4ccccc4c3)C(=O)N[C@@H](c3ccccc3)C(=O)N2)C(=O)NC[C@@H](C(=O)N[C@@H](CCCN)C(=O)N[C@H](CCCNC(=N)N)C(=O)N[C@@H](Cc2ccccc2)C(=O)N[C@H](C)C(N)=O)NC(=O)[C@H](CCCNC(=N)N)NC(=O)[C@@H](CCCNC(=N)N)NC1=O
4,4.9 µM,C[C@@H]1NC(=O)[C@H](CO)NC(=O)[C@@H](Cc2ccc3ccccc3c2)NC(=O)c2cc3cc(c2)C(=O)NC[C@@H](C(=O)N[C@@H](CCCN)C(=O)N[C@H](CCCNC(=N)N)C(=O)N[C@@H](Cc2ccccc2)C(=O)N[C@H](C)C(N)=O)NC(=O)[C@H](CCCNC(=N)N)NC(=O)[C@@H](CCCNC(=N)N)NC(=O)[C@@H](CCC(N)=O)NC(=O)[C@@H](Cc2ccccc2)NC(=O)[C@H](CCCCNC3=O)NC(=O)[C@H](c2ccccc2)NC(=O)[C@@H](Cc2ccc3ccccc3c2)NC1=O
5,5.3 µM,N=C(N)NCCC[C@@H]1NC(=O)[C@@H](CCCNC(=N)N)NC(=O)[C@@H](CCC(N)=O)NC(=O)[C@@H](Cc2ccccc2)NC(=O)[C@@H]2CCCCNC(=O)c3cc(cc(c3)C(=O)N[C@H](Cc3ccc4ccccc4c3)C(=O)N[C@@H](CO)C(=O)N[C@@H](CC(N)=O)C(=O)N[C@H](Cc3ccc4ccccc4c3)C(=O)N[C@@H](c3ccccc3)C(=O)N2)C(=O)NC[C@@H](C(=O)N[C@@H](CCCN)C(=O)N[C@H](CCCNC(=N)N)C(=O)N[C@@H](Cc2ccccc2)C(=O)N[C@H](CO)C(N)=O)NC1=O
6,5.2 µM,C[C@@H](NC(=O)[C@H](Cc1ccccc1)NC(=O)[C@@H](CCCNC(=N)N)NC(=O)[C@H](CCCN)NC(=O)[C@@H]1CNC(=O)c2cc3cc(c2)C(=O)N[C@H](Cc2ccc4ccccc4c2)C(=O)N[C@@H](CO)C(=O)N[C@@H](CC(N)=O)C(=O)N[C@H](Cc2csc4ccccc24)C(=O)N[C@@H](c2ccccc2)C(=O)N[C@@H](CCCCNC3=O)C(=O)N[C@H](Cc2ccccc2)C(=O)N[C@H](CCC(N)=O)C(=O)N[C@H](CCCNC(=N)N)C(=O)N[C@@H](CCCNC(=N)N)C(=O)N1)C(N)=O
7,6.4 µM,C[C@@H](NC(=O)[C@H](Cc1ccccc1)NC(=O)[C@@H](CCCNC(=N)N)NC(=O)[C@H](CCCN)NC(=O)[C@@H]1CNC(=O)c2cc3cc(c2)C(=O)N[C@H](Cc2ccc4ccccc4c2)C(=O)N[C@@H](CO)C(=O)N[C@@H](CC(N)=O)C(=O)N[C@H](Cc2ccc4ccccc4c2)C(=O)N[C@@H](c2ccccc2)C(=O)N[C@@H](CCCCNC3=O)C(=O)N[C@H](Cc2ccccc2)C(=O)N[C@H](CCCN)C(=O)N[C@H](CCCNC(=N)N)C(=O)N[C@@H](CCCNC(=N)N)C(=O)N1)C(N)=O
8,4.8 µM,CC(C)C[C@H]1NC(=O)[C@@H](Cc2ccccc2)NC(=O)[C@@H]2CCCCNC(=O)c3cc(cc(c3)C(=O)N[C@H](Cc3ccc4ccccc4c3)C(=O)N[C@@H](CO)C(=O)N[C@@H](CC(N)=O)C(=O)N[C@H](Cc3ccc4ccccc4c3)C(=O)N[C@@H](c3ccccc3)C(=O)N2)C(=O)NC[C@@H](C(=O)N[C@@H](CCCN)C(=O)N[C@H](CCCNC(=N)N)C(=O)N[C@@H](Cc2ccccc2)C(=O)N[C@H](C)C(N)=O)NC(=O)[C@H](CCCNC(=N)N)NC(=O)[C@@H](CCCNC(=N)N)NC1=O
9,7.4 µM,C[C@H](NC(=O)C[C@H](Cc1ccccc1)NC(=O)[C@@H](CCCNC(=N)N)NC(=O)[C@H](CCCN)NC(=O)[C@@H]1CNC(=O)c2cc3cc(c2)C(=O)N[C@H](Cc2ccc4ccccc4c2)C(=O)N[C@@H](CO)C(=O)N[C@@H](CC(N)=O)C(=O)N[C@H](Cc2ccc4ccccc4c2)C(=O)N[C@@H](c2ccccc2)C(=O)N[C@@H](CCCCNC3=O)C(=O)N[C@H](Cc2ccccc2)C(=O)N[C@H](CCC(N)=O)C(=O)N[C@H](CCCNC(=N)N)C(=O)N[C@@H](CCCNC(=N)N)C(=O)N1)C(N)=O
10,7.1 µM,CC(C)[C@H](NC(=O)[C@H](Cc1ccccc1)NC(=O)[C@@H](CCCNC(=N)N)NC(=O)[C@H](CCCN)NC(=O)[C@@H]1CNC(=O)c2cc3cc(c2)C(=O)N[C@H](Cc2ccc4ccccc4c2)C(=O)N[C@@H](CO)C(=O)N[C@@H](CC(N)=O)C(=O)N[C@H](Cc2ccc4ccccc4c2)C(=O)N[C@@H](c2ccccc2)C(=O)N[C@@H](CCCCNC3=O)C(=O)N[C@H](Cc2ccccc2)C(=O)N[C@H](CCC(N)=O)C(=O)N[C@H](CCCNC(=N)N)C(=O)N[C@@H](CCCNC(=N)N)C(=O)N1)C(N)=O

# Same assay, conditions: nci-h358
row,Structure (SMILES),EC50
1,C[C@@H]1NC(=O)[C@@H](Cc2ccccc2)NC(=O)[C@@H]2CCCCNC(=O)c3cc(cc(c3)C(=O)N[C@H](Cc3ccc4ccccc4c3)C(=O)N[C@@H](CO)C(=O)N[C@@H](CC(N)=O)C(=O)N[C@H](Cc3ccc4ccccc4c3)C(=O)N[C@@H](c3ccccc3)C(=O)N2)C(=O)NC[C@@H](C(=O)N[C@@H](CCCN)C(=O)N[C@H](CCCNC(=N)N)C(=O)N[C@@H](Cc2c[nH]c3ccccc23)C(=O)N[C@H](C)C(N)=O)NC(=O)[C@H](CCCNC(=N)N)NC(=O)[C@@H](CCCNC(=N)N)NC1=O,Not Active
2,C[C@@H]1NC(=O)[C@@H](Cc2ccccc2)NC(=O)[C@@H]2CCCCNC(=O)c3cc(cc(c3)C(=O)N[C@H](Cc3ccc4ccccc4c3)C(=O)N[C@@H](CO)C(=O)N[C@@H](CC(N)=O)C(=O)N[C@H](Cc3ccc4ccccc4c3)C(=O)N[C@@H](c3ccccc3)C(=O)N2)C(=O)NC[C@@H](C(=O)N[C@@H](CN)C(=O)N[C@H](CCCNC(=N)N)C(=O)N[C@@H](Cc2ccc(F)cc2)C(=O)N[C@H](C)C(N)=O)NC(=O)[C@H](CCCNC(=N)N)NC(=O)[C@@H](CCCNC(=N)N)NC1=O,Not Active
3,C[C@@H](NC(=O)[C@H](Cc1ccccc1)NC(=O)[C@@H](CCCNC(=N)N)NC(=O)[C@H](CCCN)NC(=O)[C@@H]1CNC(=O)c2cc3cc(c2)C(=O)N[C@H](Cc2ccc4ccccc4c2)C(=O)N[C@@H](CCO)C(=O)N[C@@H](CC(N)=O)C(=O)N[C@H](Cc2ccc4ccccc4c2)C(=O)N[C@@H](c2ccccc2)C(=O)N[C@@H](CCCCNC3=O)C(=O)N[C@H](Cc2ccccc2)C(=O)N[C@H](CCC(N)=O)C(=O)N[C@H](CCCNC(=N)N)C(=O)N[C@@H](CCCNC(=N)N)C(=O)N1)C(N)=O,Not Active

# Biological target: GTPase KRas (Homo sapiens, UniProt P01116, G12V)
# Sequence (P01116 whole entry G12V, the tested form may be a part): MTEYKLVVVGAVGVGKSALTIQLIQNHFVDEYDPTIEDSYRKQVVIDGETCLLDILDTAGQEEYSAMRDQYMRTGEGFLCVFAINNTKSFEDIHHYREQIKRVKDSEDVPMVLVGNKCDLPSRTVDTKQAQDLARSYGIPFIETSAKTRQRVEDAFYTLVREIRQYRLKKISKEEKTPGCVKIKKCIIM
# Test: Inhibition of His6-tagged KRas G12V mutant (unknown origin) expressed in Escherichia coli BL21(DE3) cells assessed as reduction in Ras/GST-fused Raf RBD interaction incubated for 1 hr by HTRF assay
# Settings: not given
row,Structure (SMILES),IC50
1,CC(C)[C@@H](NC(=O)C[C@@H](CC(N)=O)NC(=O)[C@@H]1CNC(=O)c2cc3cc(c2)C(=O)N[C@H](Cc2ccc4ccccc4c2)C(=O)N[C@@H](CO)C(=O)N[C@@H](CCC(N)=O)C(=O)N[C@H](Cc2ccc4ccccc4c2)C(=O)N[C@@H](c2ccccc2)C(=O)N[C@@H](CCCCNC3=O)C(=O)N[C@H](Cc2ccccc2)C(=O)N[C@@H](C)C(=O)N[C@H](CCCNC(=N)N)C(=O)N[C@@H](CCCNC(=N)N)C(=O)N1)C(=O)N[C@H](C)CC(=O)N[C@H](Cc1c[nH]c2ccccc12)C(=O)NCCC(N)=O,Not Active
